pKi: −log10 of the molar value. Several values for one entry are separate records, joined by “and”; a condition that tells them apart may be missing. Equal entries are not always repeated. Structures can show the parent of a compound that is named as a salt.

T1 sequence (P08709 213-466 limits assumed): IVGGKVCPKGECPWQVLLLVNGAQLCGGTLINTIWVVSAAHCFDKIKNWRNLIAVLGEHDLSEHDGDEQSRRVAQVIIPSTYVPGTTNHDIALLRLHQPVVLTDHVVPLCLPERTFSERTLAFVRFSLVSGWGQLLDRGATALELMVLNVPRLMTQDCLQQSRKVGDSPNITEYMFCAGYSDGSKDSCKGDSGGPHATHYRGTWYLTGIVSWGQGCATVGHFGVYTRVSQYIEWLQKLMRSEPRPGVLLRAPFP
T1 sequence (P08709 61-212 limits assumed): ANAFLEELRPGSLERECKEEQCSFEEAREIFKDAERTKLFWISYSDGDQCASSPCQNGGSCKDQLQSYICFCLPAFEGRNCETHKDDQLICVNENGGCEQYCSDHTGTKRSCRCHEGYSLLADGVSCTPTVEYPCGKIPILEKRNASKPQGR
T1 sequence (P13726 33-251 partner limits assumed): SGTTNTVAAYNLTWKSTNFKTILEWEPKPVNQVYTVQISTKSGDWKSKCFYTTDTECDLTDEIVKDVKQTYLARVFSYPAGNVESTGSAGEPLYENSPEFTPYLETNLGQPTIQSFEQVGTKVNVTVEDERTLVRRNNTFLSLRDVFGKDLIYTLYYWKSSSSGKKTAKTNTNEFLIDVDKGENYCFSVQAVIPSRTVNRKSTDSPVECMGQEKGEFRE

One data set concerns the target T1, Factor VIIa (Homo sapiens, UniProt P08709).
T1 construct: purchased Haematologic Technologies (purified) or Novo Nordisk (recombinant)
As to the kind of experiment: Factor VIIa assay. Format: biochemical. The settings on record: measured in the Factor VIIa assay described above; several values in a cell are repeat determinations.
`CCC(=O)N1CC(=O)Nc2ccc(S(=O)(=O)C(C)C)c(c2)CNC(=O)C(Nc2ccc3nc[nH]c(=O)c3c2)c2cc(C)c(c(C)c2)C1` (centres unmarked) [Example 118, 17,20-Dimethyl-2-(4-oxo-3,4-dihydro-quinazolin-6-ylamino)-7-(propane-2-sulfonyl)-14-propionyl-4,11,14-triaza-tricyclo[14.2.2.1^6,10]henicosa-1(19),6,8,10(21),16(20),17-hexaene-3,12-dione trifluoroacetate] had a pKi of 7.55.
On the same count and under the same terms, next, `Cc1cc2cc(C)c1CCOC(=O)Nc1cccc(c1)CN(C)C(=O)C2Nc1ccc2cc[nH]c(=O)c2c1` (centres unmarked) [Example 14, 4,17,20-Trimethyl-2-(1-oxo-1,2-dihydro-isoquinolin-7-ylamino)-13-oxa-4,11-diaza-tricyclo[14.2.2.1^6,10]henicosa-1(19),6,8,10(21),16(20),17-hexaene-3,12-dione]: 5.82; `Cc1cc2ccc1[C@@H](C)COC(=O)Nc1ccc(N3C(=O)C4CCC3CC4)c(c1)CN(C)C(=O)[C@@H]2Nc1ccc2cc[nH]c(=O)c2c1` [Example 168, (2R,15R)-4,15,17-Trimethyl-7-(3-oxo-2-aza-bicyclo[2.2.2]oct-2-yl)-2-(1-oxo-1,2-dihydro-isoquinolin-7-ylamino)-13-oxa-4,11-diaza-tricyclo[14.2.2.1^6,10]henicosa-1(19),6,8,10(21),16(20),17-hexaene-3,12-dione]: 9.06; `CCc1cc2ccc1[C@@H](C)COC(=O)Nc1ccc(S(=O)(=O)C3CC3)c(c1)CN(C)C(=O)[C@@H]2Nc1ccc2cc[nH]c(=O)c2c1` [Example 18, (2R,15R)-7-Cyclopropanesulfonyl-17-ethyl-4,15-dimethyl-2-(1-oxo-1,2-dihydro-isoquinolin-7-ylamino)-13-oxa-4,11-diaza-tricyclo[14.2.2.1^6,10]henicosa-1(19),6,8,10(21),16(20),17-hexaene-3,12-dione]: 9.02.
For the compound `COc1cc2ccc1[C@@H](C)COC(=O)Nc1ccc(S(=O)(=O)C3CC3)c(c1)CN(C)C(=O)[C@@H]2Nc1ccc2cc[nH]c(=O)c2c1` [Example 82, (2R,15R)-7-Cyclopropanesulfonyl-17-methoxy-4,15-dimethyl-2-(1-oxo-1,2-dihydro-isoquinolin-7-ylamino)-13-oxa-4,11-diaza-tricyclo[14.2.2.1^6,10]henicosa-1(19),6,8,10(21),16(20),17-hexaene-3,12-dione], the pKi is 9.21.
Take `Cc1cc2ccc1[C@@H](C)COC(=O)Nc1ccc(N3CCCCS3(=O)=O)c(c1)CN(C)C(=O)[C@@H]2Nc1ccc2cc[nH]c(=O)c2c1` [Example 86, (2R,15R)-7-(1,1-Dioxo-1λ^6-perhydro-1,2-thiazin-2-yl)-4,15,17-trimethyl-2-(1-oxo-1,2-dihydro-isoquinolin-7-ylamino)-13-oxa-4,11-diaza-tricyclo[14.2.2.1^6,10]henicosa-1(19),6,8,10(21),16(20),17-hexaene-3,12-dione]: the pKi is 8.71.
`Cc1cc2ccc1[C@@H](C)COC(=O)Nc1ccc(S(=O)(=O)C3CC3)c(c1)CN(C)C(=O)[C@@H]2Nc1ccc2cc[nH]c(=O)c2c1` [Example 79, (2R,15R)-7-Cyclopropanesulfonyl-4,15,17-trimethyl-2-(1-oxo-1,2-dihydro-isoquinolin-7-ylamino)-13-oxa-4,1-diaza-tricyclo[14.2.2.1^6,10]henicosa-1(19),6,8,10(21),16(20),17-hexaene-3,12-dione] had a pKi of 9.06.
`Cc1cc2ccc1[C@@H](C)COC(=O)Nc1cccc(c1)CN(CCN)C(=O)[C@@H]2Nc1ccc2cc[nH]c(=O)c2c1` [Example 149, (2R,15R)-4-(2-Amino-ethyl)-15,17-dimethyl-2-(1-oxo-1,2-dihydro-isoquinolin-7-ylamino)-13-oxa-4,11-diaza-tricyclo[14.2.2.1^6,10]henicosa-1(19),6,8,10(21),16(20),17-hexaene-3,12-dione] gave a pKi of 5.92.
For the compound `COC(=O)NCCN1Cc2cccc(c2)NC(=O)OC[C@H](C)c2ccc(cc2C)[C@@H](Nc2ccc3cc[nH]c(=O)c3c2)C1=O` [Example 153, {2-[(2R,15R)-15,17-Dimethyl-3,12-dioxo-2-(1-oxo-1,2-dihydro-isoquinolin-7-ylamino)-13-oxa-4,11-diaza-tricyclo[14.2.2.1^6,10]henicosa-1(19),6,8,10(21),16(20),17-hexaen-4-yl]-ethyl}-carbamic acid methyl ester], the pKi was 5.84.
In turn, `CCOC(=O)CCN1Cc2cccc(c2)NC(=O)OC[C@H](C)c2ccc(cc2C)[C@@H](Nc2ccc3cc[nH]c(=O)c3c2)C1=O` [Example 154, 3-[(2R,15R)-15,17-Dimethyl-3,12-dioxo-2-(1-oxo-1,2-dihydro-isoquinolin-7-ylamino)-13-oxa-4,11-diaza-tricyclo[14.2.2.1^6,10]henicosa-1(19),6,8,10(21),16(20),17-hexaen-4-yl]-propionic acid ethyl ester] had a pKi of 6.00.
Still for that read-out and setting: next, `COC(=O)N1CC(=O)Nc2ccc(S(=O)(=O)C(C)C)c(c2)CNC(=O)C(Nc2ccc3nc[nH]c(=O)c3c2)c2cc(C)c(c(C)c2)C1` (centres unmarked) [Example 117, 17,20-Dimethyl-3,12-dioxo-2-(4-oxo-3,4-dihydro-quinazolin-6-ylamino)-7-(propane-2-sulfonyl)-4,11,14-triaza-tricyclo[14.2.2.1^6,10]henicosa-1(19),6,8,10(21),16(20),17-hexaene-14-carboxylic acid methyl ester trifluoroacetate]: 7.66.
Still for that read-out and setting: next, `CC(=O)N1CC(=O)Nc2ccc(S(=O)(=O)C(C)C)c(c2)CNC(=O)C(Nc2ccc3cc[nH]c(=O)c3c2)c2cc(C)c(c(C)c2)C1` (centres unmarked) [Example 128, 14-Acetyl-17,20-dimethyl-2-(1-oxo-1,2-dihydro-isoquinolin-7-ylamino)-7-(propane-2-sulfonyl)-4,11,14-triaza-tricyclo[14.2.2.1^6,10]henicosa-1(19),6,8,10(21),16(20),17-hexaene-3,12-dione trifluoroacetate]: 7.58; `CCOC(=O)CCN1Cc2cccc(c2)NC(=O)OCCc2c(C)cc(cc2C)[C@@H](Nc2ccc3cc[nH]c(=O)c3c2)C1=O` [Example 144, 3-[17,20-Dimethyl-3,12-dioxo-2-(1-oxo-1,2-dihydro-isoquinolin-7-ylamino)-13-oxa-4,11-diaza-tricyclo[14.2.2.1^6,10]henicosa-1(19),6,8,10(21),16(20),17-hexaen-4-yl]-propionic acid ethyl ester]: 5.51.
In turn, `CCN1CC(=O)Nc2ccc(S(=O)(=O)C(C)C)c(c2)CNC(=O)C(Nc2ccc3nc[nH]c(=O)c3c2)c2cc(C)c(c(C)c2)C1` (centres unmarked) [Example 121, 14-Ethyl-17,20-dimethyl-2-(4-oxo-3,4-dihydro-quinazolin-6-ylamino)-7-(propane-2-sulfonyl)-4,11,14-triaza-tricyclo[14.2.2.1^6,10]henicosa-1(19),6,8,10(21),16(20),17-hexaene-3,12-dione bistrifluoroacetate] gave a negative logarithm of the Ki (pKi) of 7.63.
On the same count and under the same terms, next, `Cc1cc2ccc1[C@@H](C)COC(=O)Nc1cccc(c1)[C@@H](C)NC(=O)[C@@H]2Nc1ccc2cc[nH]c(=O)c2c1` [Example 158]: 7.57 and 7.01.
The compound `Cc1cc2ccc1[C@@H](C)COC(=O)Nc1cccc(c1)CN(CCO)C(=O)[C@@H]2Nc1ccc2cc[nH]c(=O)c2c1` [Example 151, (2R,15R)-4-(2-Hydroxy-ethyl)-15,17-dimethyl-2-(1-oxo-1,2-dihydro-isoquinolin-7-ylamino)-13-oxa-4,11-diaza-tricyclo[14.2.2.1^6,10]henicosa-1(19),6,8,10(21),16(20),17-hexaene-3,12-dione] showed a pKi of 5.95.
The same measure, in the same setting: the value for `Cc1cc2cc(C)c1CN(C(C)C)CC(=O)Nc1ccc(S(=O)(=O)C(C)C)c(c1)CNC(=O)C2Nc1ccc2nc[nH]c(=O)c2c1` (centres unmarked) [Example 124, 14-Isopropyl-17,20-dimethyl-2-(4-oxo-3,4-dihydro-quinazolin-6-ylamino)-7-(propane-2-sulfonyl)-4,11,114-triaza-tricyclo[14.2.2.1^6,10]henicosa-1(19),6,8,10(21),06(20),17-hexaene-3,12-dione bistrifluoroacetate] was 7.48; that for `COCCN1Cc2cccc(c2)NC(=O)OC[C@H](C)c2ccc(cc2C)[C@@H](Nc2ccc3cc[nH]c(=O)c3c2)C1=O` [Example 152, (2R,15R)-4-(2-Methoxy-ethyl)-15,17-dimethyl-2-(1-oxo-1,2-dihydro-isoquinolin-7-ylamino)-13-oxa-4,11-diaza-tricyclo[14.2.2.1^6,10]henicosa-1(19),6,8,10(21),16(20),17-hexaene-3,12-dione] was 5.97.

System in the next data set: not given
Test: not given
The settings on record: from CCS(=O)(=O)c1ccc(NC(=O)CCCc2ccc(C(Nc3ccc4c(c3)C(=O)NC4)C(=O)O)cc2)cc1CNC(=O)OC(C)(C)C; amide bond; BOP; CH2Cl2; 6.6 mM; 40.0 °C; 6.0 h; 2 steps.
Take `CCS(=O)(=O)c1ccc2cc1CNC(=O)[C@H](Nc1ccc3c(c1)C(=O)NC3)c1ccc(cc1)CCCC(=O)N2`: the ring closure, yield of all isomers is 27.7%.

The data set is the same for the next values; noted with them: from CCS(=O)(=O)c1ccc(NC(=O)CCCc2ccc(C(Nc3ccc4c(c3)C(=O)NCC4)C(=O)O)cc2)cc1CNC(=O)OC(C)(C)C; amide bond; BOP; CH2Cl2; 40.0 °C; 6.0 h; 2 steps.
Compound `CCS(=O)(=O)c1ccc2cc1CNC(=O)[C@H](Nc1ccc3c(c1)C(=O)NCC3)c1ccc(cc1)CCCC(=O)N2` yielded a ring closure, yield of all isomers of 28.4%.

Still in this data set, the particulars now being: from CNCc1cc(NC(=O)CCCc2ccc(C(Nc3ccc4c(c3)C(=O)NC4)C(=O)O)cc2)ccc1S(=O)(=O)C(C)C; amide bond; BOP; CH2Cl2; 8.05 mM; 40.0 °C; 16.0 h.
On to `CC(C)S(=O)(=O)c1ccc2cc1CN(C)C(=O)[C@H](Nc1ccc3c(c1)C(=O)NC3)c1ccc(cc1)CCCC(=O)N2`, for which the ring closure, yield of all isomers was 31.8%.

The same data set, now with this note: from CNCc1cc(NC(=O)CCCc2ccc(C(Nc3ccc4c(c3)C(=O)NCC4)C(=O)O)cc2)ccc1S(=O)(=O)C(C)C; amide bond; BOP; CH2Cl2; 5.11 mM; 40.0 °C; 7.0 h.
For `CC(C)S(=O)(=O)c1ccc2cc1CN(C)C(=O)[C@H](Nc1ccc3c(c1)C(=O)NCC3)c1ccc(cc1)CCCC(=O)N2`, the ring closure, yield of all isomers turned out to be 19.9%.

System in the next data set: not given
Test: not given
The settings on record: amide bond; 16-membered ring; TFA; BOP/DMAP/Et3N; CH2Cl2/DMF; 40.0 °C; 2 steps.
Consider `CCS(=O)(=O)c1ccc2cc1CNC(=O)[C@H](Nc1ccc3c(c1)C(=O)NCC3)c1ccc(cc1)CCCC(=O)N2`, for which the ring closure, yield after HPLC worked out at 28.4%.

The values are drawn from patent US8420830B2, “Macrocyclic factor VIIa inhibitors useful as anticoagulants” (Bristol-Myers Squibb Company, priority 2006, dated 2013).
